Experimental data reported in PubChem BioAssay (NCI).
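96-well plates; 48 h exposure; 5 concentrations. Endpoints by linear interpolation between flanking doses. Not reached: highest tested concentration assigned. Definition used: TGI = concentration required for complete inhibition of growth.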

How the values were obtained:
Test in all cases: NCI tumour cell line growth inhibition, 48 h
SW-620 colon = system: SW-620 colon
U251 CNS = system: U251 CNS
SK-MEL-2 melanoma = system: SK-MEL-2 melanoma
ACHN renal = system: ACHN renal
HL-60(TB) leukemia = system: HL-60(TB) leukemia
SNB-19 CNS = system: SNB-19 CNS
LXFL 529 NSCLC = system: LXFL 529 NSCLC
IGROV1 ovarian = system: IGROV1 ovarian
MOLT-4 leukemia = system: MOLT-4 leukemia
SK-MEL-5 melanoma = system: SK-MEL-5 melanoma
786-0 renal = system: 786-0 renal
HCC-2998 colon = system: HCC-2998 colon
SK-OV-3 ovarian = system: SK-OV-3 ovarian
K-562 leukemia = system: K-562 leukemia
SK-MEL-28 melanoma = system: SK-MEL-28 melanoma
NCI-H460 lung = system: NCI-H460 lung
HCT-116 colon = system: HCT-116 colon
TK-10 renal = system: TK-10 renal
HOP-62 NSCLC = system: HOP-62 NSCLC
EKVX NSCLC = system: EKVX NSCLC
CCRF-CEM leukemia = system: CCRF-CEM leukemia
A498 renal = system: A498 renal
XF 498 CNS = system: XF 498 CNS
UO-31 renal = system: UO-31 renal
SF-539 CNS = system: SF-539 CNS
NCI-H23 lung = system: NCI-H23 lung
HOP-18 NSCLC = system: HOP-18 NSCLC
HT29 colon = system: HT29 colon
OVCAR-3 ovarian = system: OVCAR-3 ovarian
OVCAR-8 ovarian = system: OVCAR-8 ovarian
DMS 273 small cell lung = system: DMS 273 small cell lung
LOX IMVI melanoma = system: LOX IMVI melanoma
MALME-3M melanoma = system: MALME-3M melanoma
UACC-257 melanoma = system: UACC-257 melanoma
RXF 393 renal = system: RXF 393 renal
OVCAR-5 ovarian = system: OVCAR-5 ovarian
M19-MEL melanoma = system: M19-MEL melanoma
KM12 colon = system: KM12 colon
SNB-78 CNS = system: SNB-78 CNS
DLD-1 colon = system: DLD-1 colon
HOP-92 NSCLC = system: HOP-92 NSCLC
RXF-631 renal = system: RXF-631 renal
RPMI-8226 leukemia = system: RPMI-8226 leukemia
NCI-H522 lung = system: NCI-H522 lung
SF-268 CNS = system: SF-268 CNS
KM20L2 colon = system: KM20L2 colon
COLO 205 colon = system: COLO 205 colon
SF-295 CNS = system: SF-295 CNS
DMS 114 small cell lung = system: DMS 114 small cell lung
A549 NSCLC = system: A549 NSCLC
SNB-75 CNS = system: SNB-75 CNS
OVCAR-4 ovarian = system: OVCAR-4 ovarian
SN12C renal = system: SN12C renal
HCT-15 colon = system: HCT-15 colon
M14 melanoma = system: M14 melanoma
UACC-62 melanoma = system: UACC-62 melanoma
CAKI-1 renal = system: CAKI-1 renal
NCI-H226 lung = system: NCI-H226 lung

Measured: TGI

BrC12C3C4C5C(C(C43)C13OCCO3)C52 (centres undefined)
not listed: OVCAR-4 ovarian | SN12C renal | HCT-15 colon | M14 melanoma | UACC-62 melanoma | CAKI-1 renal | NCI-H226 lung
> 100 µM: all other assays above

CCN(CC)/C(=C\Cl)Nc1ccccn1
> 100 µM: all assays above
